Measurements as given in patent US20060172334A1, “Method for detecting adverse reaction susceptibility to an HMG CoA reductase inhibitor” (Marshfield Clinic, priority 2005, published 2006).
Read-outs that look alike come from different tables or passages of the source.

Conditions: cases only
[1] = CYP3A4 heterozygous (CYP3A4*1A/*1B), less gemfibrozil
[2] = CYP3A4 heterozygous (CYP3A4*1A/*1B), less gemfibrozil AND less niacin
[3] = CYP3A4 heterozygous (CYP3A4*1A/*1B), no medications removed
[4] = CYP3A4 homozygous (CYP3A4*1A/*1A), less gemfibrozil
[5] = CYP3A4 homozygous (CYP3A4*1A/*1A), less gemfibrozil AND less niacin
[6] = CYP3A4 homozygous (CYP3A4*1A/*1A), no medications removed
[7] = CYP3A5 heterozygous (CYP3A5*1/*3), less gemfibrozil
[8] = CYP3A5 heterozygous (CYP3A5*1/*3), less gemfibrozil AND less niacin
[9] = CYP3A5 heterozygous (CYP3A5*1/*3), no medications removed
[10] = CYP3A5 homozygous (CYP3A5*3/*3), less gemfibrozil
[11] = CYP3A5 homozygous (CYP3A5*3/*3), less gemfibrozil AND less niacin
[12] = CYP3A5 homozygous (CYP3A5*3/*3), no medications removed

Description: Study subjects were enrolled at a large, horizontally-integrated, multispecialty group practice located in central Wisconsin. […] Case assignment (i.e., status as a case versus control) was determined by criteria outlined below.
One hundred thirty-seven adult subjects (68 cases and 69 controls) agreed to participate in this study. Due to potentially confounding pharmacokinetic interactions, patients were excluded from the study if they had previously been diagnosed with kidney disease or liver disease. Patients were also excluded if they had pre-existing muscle disease. Patients were not excluded if they were taking concomitant medications.
To determine whether CYP3A4*1B or CYP3A5*3 were associated with the severity of muscle damage, serum CK levels were ranked and compared between genotypes in the case cohort only.

CC(C)c1c(C(=O)Nc2ccccc2)c(-c2ccccc2)c(-c2ccc(F)cc2)n1CC[C@@H](O)C[C@@H](O)CC(=O)O [atorvastatin]
serum CK level, Mean [1]: 268.8
serum CK level, Median [1]: 246.0
serum CK level, Mean [2]: 246.6
serum CK level, Median [2]: 239.0
serum CK level, Mean [3]: 268.8
serum CK level, Median [3]: 246.0
serum CK level, Mean [4]: 434.6
serum CK level, Median [4]: 316.5
serum CK level, Mean [5]: 420.4
serum CK level, Median [5]: 316.5
serum CK level, Mean [6]: 441.1
serum CK level, Median [6]: 321.0
serum CK level, Mean [7]: 261.7
serum CK level, Median [7]: 239.0
serum CK level, Mean [8]: 249.9
serum CK level, Median [8]: 237.5
serum CK level, Mean [9]: 344.0
serum CK level, Median [9]: 246.0
serum CK level, Mean [10]: 441.9
serum CK level, Median [10]: 321.0
serum CK level, Mean [11]: 428.0
serum CK level, Median [11]: 321.0
serum CK level, Mean [12]: 429.2
serum CK level, Median [12]: 317.5
